Assay results published in patent publication US8895578B2, “Carboxamide, sulfonamide and amine compounds and methods for using the same” (Rigel Pharmaceuticals, Inc., priority 2007, dated 2014).

Biological target: AMPK
Test: AMPK activation, enzyme-linked immunosorbent assay
Format: biochemical
Protocol: Compounds 1-54 were assayed for their ability to activate AMPK using an enzyme-linked immunosorbent assay.
Compounds 55-62 of Table 1 were assayed for their ability to activate AMPK using an enzyme-linked immunosorbent assay.
Compounds 63-66 of Table 1 were assayed for their ability to activate AMPK using an enzyme-linked immunosorbent assay.
Compounds 67-71 of Table 1 were assayed for their ability to activate AMPK using an enzyme-linked immunosorbent assay.
Compound 72 of Table 1 was assayed for its ability to activate AMPK using an enzyme-linked immunosorbent assay.

EC50 (Table 2, ELISA) | Structure (SMILES) | also measured
1 to 5 µM | O=C(NC1CCN(S(=O)(=O)c2ccc(Cl)cc2)CC1)c1ccc2[nH]c3c(c2c1)CN(Cc1ccc(C(F)(F)F)cc1)CC3 [Compound 32, N-(1-(4-chlorophenyl-sulfonyl)piperidin-4-yl)-2-(4-(trifluoromethyl)benzyl)-2,3,4,5-tetrahydro-1H-pyrido[4,3-b]indole-8-carboxamide] | –
5 to 10 µM | O=C(NC1CCN(Cc2ccc(C(F)(F)F)cc2)CC1)c1ccc2[nH]c3c(c2c1)CN(c1ccc(F)cc1)CC3 [Compound 37, 2-(4-fluorophenyl)-N-(1-(4-(trifluoromethyl)benzyl)piperidin-4-yl)-2,3,4,5-tetrahydro-1H-pyrido[4,3-b] indole-8-carboxamide] | –
> 100 µM | O=C(NC1CCN(C(=O)c2cccnc2)CC1)c1ccc2[nH]c3c(c2c1)CN(c1ccc(F)cc1)CC3 [Compound 40, 2-(4-fluorophenyl)-N-(1-nicotinoylpiperidin-4-yl)-2,3,4,5-tetrahydro-1H-pyrido[4,3-b]indole-8-carboxamide] | –
> 100 µM | NC(=O)c1ccc(CN2CCc3[nH]c4ccc(C(=O)NC5CCN(Cc6ccncc6)CC5)cc4c3C2)cc1 [Compound 45, 2-(4-carbamoylbenzyl)-N-(1-(pyridin-4-ylmethyl)piperidin-4-yl)-2,3,4,5-tetrahydro-1H-pyrido [4,3-b]indole-8-carboxamide] | –
10 to 50 µM | NC(=O)c1ccc(CN2CCc3[nH]c4ccc(C(=O)NC5CCN(Cc6ccc(C(F)(F)F)cc6)CC5)cc4c3C2)cc1 [Compound 47, 2-(4-carbamoylbenzyl)-N-(1-(4-(trifluoromethyl)benzyl)piperidin-4-yl)-2,3,4,5-tetrahydro-1H-pyrido[4,3-b]indole-8-carboxamide] | –
> 100 µM | NC(=O)c1ccc(CN2CCc3[nH]c4ccc(C(=O)NC5CCN(Cc6ccc(F)cc6)CC5)cc4c3C2)cc1 [Compound 48, 2-(4-carbamoylbenzyl)-N-(1-(4-fluorobenzyl)piperidin-4-yl)-2,3,4,5-tetrahydro-1H-pyrido[4,3-b] indole-8-carboxamide] | –
0.5 to 1 µM | O=C(NC1CCN(C(=O)c2ccncc2)CC1)c1ccc2[nH]c3c(c2c1)CN(Cc1ccc(C(F)(F)F)cc1)CC3 [Compound 51, N-(1-isonicotinoyl-piperidin-4-yl)-2-(4-(trifluoromethyl)benzyl)-2,3,4,5-tetrahydro-1H-pyrido[4,3-b]indole-8-carboxamide] | –
10 to 50 µM | Cn1cnc(CN2CCC(NC(=O)c3ccc4[nH]c5c(c4c3)CN(Cc3ccc(C(F)(F)F)cc3)CC5)CC2)c1 [Compound 53, N-(1-((1-methyl-1H-imidazol-4-yl)methyl)piperidin-4-yl)-2-(4-(trifluoromethyl)benzyl)-2,3,4,5-tetrahydro-1H-pyrido[4,3-b]indole-8-carboxamide] | –

Continued, molecule first:

Structure (SMILES) | EC50 (Table 2, ELISA) | also measured
O=C(NC1CCN(S(=O)(=O)c2cccc(C(F)(F)F)c2)CC1)c1ccc2[nH]c3c(c2c1)CN(Cc1ccc(C(F)(F)F)cc1)CC3 [Compound 30, 2-(4-(trifluoromethyl)benzyl)-N-(1-(3-(trifluoro-methyl)phenylsulfonyl)piperidin-4-yl)-2,3,4,5-tetrahydro-1H-pyrido [4,3-b]indole-8-carboxamide] | 1 to 5 µM | –
O=C(NC1CCN(C(=O)Nc2ccc(C(F)(F)F)cc2)CC1)c1ccc2[nH]c3c(c2c1)CN(Cc1ccc(C(F)(F)F)cc1)CC3 [Compound 33, 2-(4-(trifluoromethyl)benzyl)-N-(1-(4-(trifluoro-methyl)phenylcarbamoyl)piperidin-4-yl)-2,3,4,5-tetrahydro-1H-pyrido[4,3-b]indole-8-carboxamide] | 1 to 5 µM | –
O=C(NC1CCN(S(=O)(=O)c2ccc(F)cc2)CC1)c1ccc2[nH]c3c(c2c1)CN(c1ccc(F)cc1)CC3 [Compound 35, 2-(4-fluorophenyl)-N-(1-(4-fluorophenylsulfonyl)piperidin-4-yl)-2,3,4,5-tetrahydro-1H-pyrido[4,3-b] indole-8-carboxamide] | 10 to 50 µM | –
O=C(NC1CCN(Cc2cccnc2)CC1)c1ccc2[nH]c3c(c2c1)CN(c1ccc(F)cc1)CC3 [Compound 36, 2-(4-fluorophenyl)-N-(1-(pyridin-3-ylmethyl)piperidin-4-yl)-2,3,4,5-tetrahydro-1H-pyrido[4,3-b]indole-8-carboxamide] | > 100 µM | –
CC(C)(C)OC(=O)N1CCC(NC(=O)c2ccc3[nH]c4c(c3c2)CN(c2ccc(F)cc2)CC4)CC1 [Compound 38, tert-butyl 4-(2-(4-fluorophenyl)-2,3,4,5-tetrahydro-1H-pyrido[4,3-b]indole-8-carboxamido) piperidine-1-carboxylate] | 10 to 50 µM | –
O=C(NC1CCN(C(=O)c2ccc(F)cc2)CC1)c1ccc2[nH]c3c(c2c1)CN(c1ccc(F)cc1)CC3 [Compound 39, N-(1-(4-fluorobenzoyl)piperidin-4-yl)-2-(4-fluorophenyl)-2,3,4,5-tetrahydro-1H-pyrido [4,3-b]indole-8-carboxamide] | 10 to 50 µM | –
O=C(NC1CCN(C(=O)c2ccc(C(F)(F)F)cc2)CC1)c1ccc2[nH]c3c(c2c1)CN(c1ccc(F)cc1)CC3 [Compound 41, 2-(4-fluorophenyl)-N-(1-(4-(trifluoromethyl)benzoyl)piperidin-4-yl)-2,3,4,5-tetrahydro-1H-pyrido[4,3-b] indole-8-carboxamide] | 10 to 50 µM | –
CC(C)(C)OC(=O)N1CCC(NC(=O)c2ccc3[nH]c4c(c3c2)CN(Cc2ccc(C(N)=O)cc2)CC4)CC1 [Compound 43, tert-butyl 4-(2-(4-carbamoyl-benzyl)-2,3,4,5-tetrahydro-1H-pyrido[4,3-b]indole-8-carboxamido)piperidine-1-carboxylate] | > 100 µM | –
N#Cc1ccc(CN2CCC(NC(=O)c3ccc4[nH]c5c(c4c3)CN(Cc3ccc(C(N)=O)cc3)CC5)CC2)cc1 [Compound 44, 2-(4-carbamoylbenzyl)-N-(1-(4-cyanobenzyl)piperidin-4-yl)-2,3,4,5-tetrahydro-1H-pyrido[4,3-b]indole-8-carboxamide] | 10 to 50 µM | –
NC(=O)c1ccc(CN2CCc3[nH]c4ccc(C(=O)NC5CCN(C(=O)c6ccncc6)CC5)cc4c3C2)cc1 [Compound 46, 2-(4-carbamoylbenzyl)-N-(1-isonicotinoylpiperidin-4-yl)-2,3,4,5-tetrahydro-1H-pyrido[4,3-b]indole-8-carboxamide] | > 100 µM | –
NC(=O)c1ccc(CN2CCC(NC(=O)c3ccc4[nH]c5c(c4c3)CN(Cc3ccc(C(N)=O)cc3)CC5)CC2)cc1 [Compound 49, 2-(4-carbamoylbenzyl)-N-(1-(4-carbamoylbenzyl)piperidin-4-yl)-2,3,4,5-tetrahydro-1H-pyrido [4,3-b]indole-8-carboxamide] | > 100 µM | –
O=C(NC1CCN(Cc2ccncc2)CC1)c1ccc2[nH]c3c(c2c1)CN(Cc1ccc(C(F)(F)F)cc1)CC3 [Compound 50, N-(1-(pyridin-4-ylmethyl)piperidin-4-yl)-2-(4-(trifluoromethyl)benzyl)-2,3,4,5-tetrahydro-1H-pyrido[4,3-b]indole-8-carboxamide] | < 0.5 µM | –
NC(=O)c1ccc(CN2CCC(NC(=O)c3ccc4[nH]c5c(c4c3)CN(Cc3ccc(C(F)(F)F)cc3)CC5)CC2)cc1 [Compound 52, N-(1-(4-carbamoylbenzyl)piperidin-4-yl)-2-(4-(trifluoromethyl)benzyl)-2,3,4,5-tetrahydro-1H-pyrido[4,3-b]indole-8-carboxamide] | 1 to 5 µM | –
O=C(NC1CCN(Cc2cocn2)CC1)c1ccc2[nH]c3c(c2c1)CN(Cc1ccc(C(F)(F)F)cc1)CC3 [Compound 54, N-(1-(oxazol-4-ylmethyl)piperidin-4-yl)-2-(4-(trifluoromethyl)benzyl)-2,3,4,5-tetrahydro-1H-pyrido[4,3-b]indole-8-carboxamide] | < 0.5 µM | –
O=C(NC1CCN(Cc2ccccc2)CC1)c1ccc(CN2CCN(Cc3ccccc3)CC2)cc1 [Compound 55, 4-((4-benzylpiperazin-1-yl)methyl)-N-(1-benzyl-piperidin-4-yl)benzamide] | – | EC50 (Table 3, ELISA): < 0.1 µM
O=C(NC1CCN(Cc2ccccc2)CC1)c1ccc(CN2CCN(CC3CCCCC3)CC2)cc1 [Compound 56, N-(1-benzylpiperidin-4-yl)-4-((4-(cyclohexyl-methyl)piperazin-1-yl)methyl)benzamide] | – | EC50 (Table 3, ELISA): 1 to 10 µM
O=C(NC1CCN(Cc2ccccc2)CC1)c1ccc(CN2CCN(c3ccc(C(F)(F)F)cn3)CC2)cc1 [Compound 57, N-(1-benzylpiperidin-4-yl)-4-((4-(5-(trifluoro-methyl)pyridin-2-yl)piperazin-1-yl)methyl) benzamide] | – | EC50 (Table 3, ELISA): < 0.1 µM
O=C(NC1CCN(Cc2ccccc2)CC1)c1ccc(CN2CCN(c3ccccn3)CC2)cc1 [Compound 58, N-(1-benzylpiperidin-4-yl)-4-((4-(pyridin-2-yl)piperazin-1-yl)methyl) benzamide] | – | EC50 (Table 3, ELISA): 1 to 10 µM
O=C(NC1CCN(Cc2ccncc2)CC1)c1ccc(CN2CCN(Cc3ccccc3)CC2)cc1 [Compound 59, 4-((4-benzylpiperazin-1-yl)methyl)-N-(1-(pyridin-4-ylmethyl)piperidin-4-yl)benzamide] | – | EC50 (Table 3, ELISA): 0.1 to 0.5 µM
O=C(NC1CCN(Cc2cccnc2)CC1)c1ccc(CN2CCN(Cc3ccccc3)CC2)cc1 [Compound 60, 4-((4-benzylpiperazin-1-yl)methyl)-N-(1-(pyridin-3-ylmethyl)piperidin-4-yl) benzamide] | – | EC50 (Table 3, ELISA): 0.1 to 0.5 µM
N#Cc1ccc(CN2CCC(NC(=O)c3ccc(CN4CCN(Cc5ccccc5)CC4)cc3)CC2)cc1 [Compound 61, 4-((4-benzylpiperazin-1-yl)methyl)-N-(1-(4-cyanobenzyl)piperidin-4-yl)benzamide] | – | EC50 (Table 3, ELISA): < 0.1 µM
O=C(NC1CCN(Cc2ccc(C(F)(F)F)cc2)CC1)c1ccc(CN2CCN(Cc3ccccc3)CC2)cc1 [Compound 62, 4-((4-benzylpiperazin-1-yl)methyl)-N-(1-(4-trifluoromethylbenzyl)piperidin-4-yl) benzamide] | – | EC50 (Table 3, ELISA): < 0.1 µM
O=C(NC1CCN(Cc2ccccc2)CC1)c1ccc2cc(OC3CCN(Cc4ccc(C(F)(F)F)cc4)CC3)ccc2c1 [Compound 63, N-(1-benzylpiperidin-4-yl)-6-(1-(4-(trifluoro-methyl)benzyl)piperidin-4-yloxy)-2-naphthamide] | – | EC50 (Table 4, ELISA): < 0.5 µM
